From PMC11374673, “Discovery of isoquinoline sulfonamides as allosteric gyrase inhibitors with activity against fluoroquinolone-resistant bacteria” (Nature Chemistry, 2024)
≈ marks a conversion by molar mass, not a printed value. Where “and” joins values, the source holds several entries; their conditions need not be identical. Identical values can stand only once. Like-named read-outs stand apart in the source and are kept apart here.

Assays:
[1] = system: S. aureus ATCC 29213 / ATCC BAA1717; assay: MIC by broth microdilution; assay type: cell-based
Summary of the method: (§1)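 Broth microdilution in CAMHB with twofold compound series; exponential-phase cultures (OD600 0.5) diluted 100-fold as inoculum, Keio strains pre-grown with 50 µg ml^−1 kanamycin. Overnight incubation at 37 °C, shaking 600 r.p.m. MIC is lowest concentration without visible growth, median of at least triplicates.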

[2] = system: P. aeruginosa ATCC 27853; assay: MIC by broth microdilution; assay type: cell-based
Summary of the method: as §1

[3] = system: E. coli; assay: Checkerboard assay LEI-800 with CIP; assay type: cell-based, Escherichia coli;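 note: bacterial growth read as OD600 after 20 h at 37 °C with shaking, each drug pair tested in triplicate wells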
[4] = target: T1, E. coli DNA gyrase (Escherichia coli, UniProt P0AES4); assay: Gyrase supercoiling inhibition, gel-based; assay type: biochemical
T1 construct: purchased Inspiralis Limited
T1 sequence (P0AES4 whole entry): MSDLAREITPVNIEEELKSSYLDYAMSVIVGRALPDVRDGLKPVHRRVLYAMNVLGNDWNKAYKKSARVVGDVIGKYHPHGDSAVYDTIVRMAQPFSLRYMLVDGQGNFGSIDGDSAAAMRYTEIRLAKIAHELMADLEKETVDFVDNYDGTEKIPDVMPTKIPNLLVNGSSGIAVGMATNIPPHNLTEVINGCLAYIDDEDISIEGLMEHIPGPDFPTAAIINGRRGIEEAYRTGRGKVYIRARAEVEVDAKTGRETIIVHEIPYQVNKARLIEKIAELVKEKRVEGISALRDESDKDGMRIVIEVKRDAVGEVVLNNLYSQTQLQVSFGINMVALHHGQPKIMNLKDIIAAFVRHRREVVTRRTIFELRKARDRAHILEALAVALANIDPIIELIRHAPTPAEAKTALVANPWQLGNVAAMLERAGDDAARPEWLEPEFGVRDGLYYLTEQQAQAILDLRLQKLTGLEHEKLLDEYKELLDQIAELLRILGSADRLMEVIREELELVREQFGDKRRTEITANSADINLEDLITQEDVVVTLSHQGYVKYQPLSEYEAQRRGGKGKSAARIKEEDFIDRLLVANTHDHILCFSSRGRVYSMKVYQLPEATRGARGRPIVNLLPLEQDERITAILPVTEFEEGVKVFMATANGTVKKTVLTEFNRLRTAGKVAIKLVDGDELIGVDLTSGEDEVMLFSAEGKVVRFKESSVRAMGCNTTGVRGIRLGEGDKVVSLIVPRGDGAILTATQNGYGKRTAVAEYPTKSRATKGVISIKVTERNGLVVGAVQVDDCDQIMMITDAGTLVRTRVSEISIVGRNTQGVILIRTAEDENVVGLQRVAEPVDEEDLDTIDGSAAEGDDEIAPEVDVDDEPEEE
Description: Of this stock solution, 27 µl was aliquoted for each reaction in 1.5 ml Eppendorf tubes and supplemented with 0.6 µl of the appropriate compound dilution or corresponding solvent with a final DMSO concentration of 2%. The reactions were started with 3 µl of enzyme (1 U for WT gyrase retrieved from Inspiralis Limited or 25–30 nM gyrase variants purified in house) in dilution buffer (50 mM Tris–HCl (pH 7.5), 100 mM KCl, 2 mM DTT, 1 mM EDTA and 50% (wt/vol) glycerol) for a final volume of 30 µl. Reactions were run at 37 °C for 30 min and stopped with the addition of 30 µl STEB buffer (40% (wt/vol) sucrose, 100 mM Tris–HCl pH 8, 100 mM EDTA, 0.5 mg ml^−1 bromophenol blue) and 30 µl of a chloroform:isoamyl alcohol solution (24:1 vol/vol). After brief vortexing and centrifugation at 2,300g for 1 min, 20 µl of the aqueous phase was loaded onto 1% (wt/vol) agarose gels in TAE ([…]) gel. The gels were run at 85 V for 2 h followed by staining (15 min) in 1 µg ml^−1 ethidium bromide and destaining (5–10 min) in water. […] IC50 curves were generated in GraphPad Prism (v9.0.0) using the non-linear regression curve fit variable slope with four parameters and least squares regression. A. baumannii and P. aeruginosa gyrase supercoiling inhibition assays were set up in the same way as E. coli gyrase supercoiling assays. The enzyme was retrieved from Inspiralis Ltd. (PAG1001 and ABG1001) and tested in-house for activity with ×5 U enzyme used for each reaction.

[5] = Ciprofloxacin 0.78125 nM + LEI-800 0 µM
[6] = Ciprofloxacin 0.78125 nM + LEI-800 0.1 µM
[7] = Ciprofloxacin 0.78125 nM + LEI-800 0.2 µM
[8] = Ciprofloxacin 0.78125 nM + LEI-800 0.4 µM
[9] = Ciprofloxacin 0.78125 nM + LEI-800 0.8 µM
[10] = Ciprofloxacin 0.78125 nM + LEI-800 3.1 µM
[11] = Ciprofloxacin 0.78125 nM + LEI-800 6.2 µM
[12] = Ciprofloxacin 1.5625 nM + LEI-800 0 µM
[13] = Ciprofloxacin 1.5625 nM + LEI-800 0.1 µM
[14] = Ciprofloxacin 1.5625 nM + LEI-800 0.2 µM
[15] = Ciprofloxacin 1.5625 nM + LEI-800 0.4 µM
[16] = Ciprofloxacin 1.5625 nM + LEI-800 0.8 µM
[17] = Ciprofloxacin 1.5625 nM + LEI-800 3.1 µM
[18] = Ciprofloxacin 1.5625 nM + LEI-800 6.2 µM
[19] = Ciprofloxacin 12.5 nM + LEI-800 0.2 µM
[20] = Ciprofloxacin 12.5 nM + LEI-800 0.4 µM
[21] = Ciprofloxacin 25 nM + LEI-800 0 µM
[22] = Ciprofloxacin 25 nM + LEI-800 0.1 µM
[23] = Ciprofloxacin 25 nM + LEI-800 0.2 µM
[24] = Ciprofloxacin 25 nM + LEI-800 0.4 µM
[25] = Ciprofloxacin 25 nM + LEI-800 0.8 µM
[26] = Ciprofloxacin 25 nM + LEI-800 3.1 µM
[27] = Ciprofloxacin 25 nM + LEI-800 6.2 µM
[28] = Ciprofloxacin 50 nM + LEI-800 0 µM
[29] = Ciprofloxacin 50 nM + LEI-800 0.1 µM
[30] = Ciprofloxacin 50 nM + LEI-800 0.2 µM
[31] = Ciprofloxacin 50 nM + LEI-800 0.4 µM
[32] = Ciprofloxacin 50 nM + LEI-800 0.8 µM
[33] = Ciprofloxacin 50 nM + LEI-800 3.1 µM
[34] = Ciprofloxacin 50 nM + LEI-800 6.2 µM
[35] = Staphylococcus aureus; read-out: MIC S. aureus ATCC 29213
[36] = Staphylococcus aureus; read-out: MIC S. aureus ATCC BAA1717
[37] = Pseudomonas aeruginosa, ATCC27853; read-out: MIC P. aeruginosa ATCC 27853

Compound: O=C(O)c1cn(C2CC2)c2cc(N3CCNCC3)c(F)cc2c1=O [CIP, ciprofloxacin]
- MIC ([1]; Staphylococcus aureus, read-out: MIC S. aureus ATCC 29213): 0.755 µM (≈ 0.25 µg/mL)
- MIC ([1]; Staphylococcus aureus, read-out: MIC S. aureus ATCC BAA1717): > 0.755 µM
- MIC ([2]; Pseudomonas aeruginosa, ATCC27853, read-out: MIC P. aeruginosa ATCC 27853): 0.377 µM (≈ 0.125 µg/mL)
- checkerboard plate reading, Average values [3, 5]: 0.83
- checkerboard plate reading, replicate wells [3, 5]: 0.8643 and 0.836 and 0.7898
- checkerboard plate reading, Average values [3, 6]: 0.7281
- checkerboard plate reading, replicate wells [3, 6]: 0.7059 and 0.7562 and 0.7221
- checkerboard plate reading, Average values [3, 7]: 0.6917
- checkerboard plate reading, replicate wells [3, 7]: 0.6798 and 0.723 and 0.6723
- checkerboard plate reading, Average values [3, 8]: 0.6669
- checkerboard plate reading, replicate wells [3, 8]: 0.6638 and 0.6554 and 0.6815
- checkerboard plate reading, Average values [3, 9]: 0.5857
- checkerboard plate reading, replicate wells [3, 9]: 0.6064 and 0.5755 and 0.5753
- checkerboard plate reading, Average values [3, 10]: 0.2755
- checkerboard plate reading, replicate wells [3, 10]: 0.2688 and 0.2609 and 0.2967
- checkerboard plate reading, Average values [3, 11]: 0.1492
- checkerboard plate reading, replicate wells [3, 11]: 0.1443 and 0.151 and 0.1523
- checkerboard plate reading, Average values ([3]; Ciprofloxacin 0.78125 nM + LEI-800 […]): 0.4707
- checkerboard plate reading, Average values [3, 12]: 0.8174
- checkerboard plate reading, replicate wells [3, 12]: 0.9018 and 0.7912 and 0.7592
- checkerboard plate reading, Average values [3, 13]: 0.71
- checkerboard plate reading, replicate wells [3, 13]: 0.7109 and 0.704 and 0.715
- checkerboard plate reading, Average values [3, 14]: 0.6776
- checkerboard plate reading, replicate wells [3, 14]: 0.667 and 0.7085 and 0.6572
- checkerboard plate reading, Average values [3, 15]: 0.6371
- checkerboard plate reading, replicate wells [3, 15]: 0.6099 and 0.644 and 0.6575
- checkerboard plate reading, Average values [3, 16]: 0.5615
- checkerboard plate reading, replicate wells [3, 16]: 0.5364 and 0.5772 and 0.571
- checkerboard plate reading, Average values [3, 17]: 0.2706
- checkerboard plate reading, replicate wells [3, 17]: 0.2674 and 0.2638 and 0.2807
- checkerboard plate reading, Average values [3, 18]: 0.1458
- checkerboard plate reading, replicate wells [3, 18]: 0.1385 and 0.1476 and 0.1513
- checkerboard plate reading, Average values ([3]; Ciprofloxacin 1.5625 nM + LEI-800 […]): 0.4578
- checkerboard plate reading, Average values ([3]; Ciprofloxacin 3.125 nM + LEI-800 0 µM): 0.7916
- checkerboard plate reading, Average values ([3]; Ciprofloxacin 3.125 nM + LEI-800 0.1 µM): 0.7539
- checkerboard plate reading, Average values ([3]; Ciprofloxacin 3.125 nM + LEI-800 0.2 µM): 0.6934
- checkerboard plate reading, Average values ([3]; Ciprofloxacin 3.125 nM + LEI-800 0.4 µM): 0.6265
- checkerboard plate reading, Average values ([3]; Ciprofloxacin 3.125 nM + LEI-800 0.8 µM): 0.5829
- checkerboard plate reading, Average values ([3]; Ciprofloxacin 3.125 nM + LEI-800 3.1 µM): 0.2713
- checkerboard plate reading, Average values ([3]; Ciprofloxacin 3.125 nM + LEI-800 6.2 µM): 0.1411
- checkerboard plate reading, Average values ([3]; Ciprofloxacin 3.125 nM + LEI-800 […]): 0.464
- checkerboard plate reading, Average values ([3]; Ciprofloxacin 6.25 nM + LEI-800 0 µM): 0.8039
- checkerboard plate reading, Average values ([3]; Ciprofloxacin 6.25 nM + LEI-800 0.1 µM): 0.6899
- checkerboard plate reading, Average values ([3]; Ciprofloxacin 6.25 nM + LEI-800 0.2 µM): 0.6258
- checkerboard plate reading, Average values ([3]; Ciprofloxacin 6.25 nM + LEI-800 0.4 µM): 0.6515
- checkerboard plate reading, Average values ([3]; Ciprofloxacin 6.25 nM + LEI-800 0.8 µM): 0.573
- checkerboard plate reading, Average values ([3]; Ciprofloxacin 6.25 nM + LEI-800 3.1 µM): 0.2841
- checkerboard plate reading, Average values ([3]; Ciprofloxacin 6.25 nM + LEI-800 6.2 µM): 0.1541
- checkerboard plate reading, Average values ([3]; Ciprofloxacin 6.25 nM + LEI-800 […]): 0.4469
- checkerboard plate reading, Average values ([3]; Ciprofloxacin 12.5 nM + LEI-800 0 µM): 0.8165
- checkerboard plate reading, Average values ([3]; Ciprofloxacin 12.5 nM + LEI-800 0.1 µM): 0.6889
- checkerboard plate reading, Average values [3, 19]: 0.6272
- checkerboard plate reading, replicate wells [3, 19]: 0.6163
- checkerboard plate reading, Average values [3, 20]: 0.6342
- checkerboard plate reading, replicate wells [3, 20]: 0.6092 and 0.6266 and 0.6669
- checkerboard plate reading, Average values ([3]; Ciprofloxacin 12.5 nM + LEI-800 0.8 µM): 0.6048
- checkerboard plate reading, Average values ([3]; Ciprofloxacin 12.5 nM + LEI-800 3.1 µM): 0.2553
- checkerboard plate reading, Average values ([3]; Ciprofloxacin 12.5 nM + LEI-800 6.2 µM): 0.142
- checkerboard plate reading, Average values ([3]; Ciprofloxacin 12.5 nM + LEI-800 […]): 0.4663
- checkerboard plate reading, Average values [3, 21]: 0.8434
- checkerboard plate reading, replicate wells [3, 21]: 0.9002 and 0.8407 and 0.7891
- checkerboard plate reading, Average values [3, 22]: 0.7231
- checkerboard plate reading, replicate wells [3, 22]: 0.7425 and 0.7229 and 0.7038
- checkerboard plate reading, Average values [3, 23]: 0.6746
- checkerboard plate reading, replicate wells [3, 23]: 0.7088 and 0.6616 and 0.6533
- checkerboard plate reading, Average values [3, 24]: 0.6549
- checkerboard plate reading, replicate wells [3, 24]: 0.6481 and 0.6316 and 0.685
- checkerboard plate reading, Average values [3, 25]: 0.6861
- checkerboard plate reading, replicate wells [3, 25]: 0.7976 and 0.6273 and 0.6333
- checkerboard plate reading, Average values [3, 26]: 0.2871
- checkerboard plate reading, replicate wells [3, 26]: 0.2705 and 0.2575 and 0.3334
- checkerboard plate reading, Average values [3, 27]: 0.1517
- checkerboard plate reading, replicate wells [3, 27]: 0.149 and 0.1483 and 0.1579
- checkerboard plate reading, Average values ([3]; Ciprofloxacin 25 nM + LEI-800 […]): 0.5325
- checkerboard plate reading, Average values [3, 28]: 0.8946
- checkerboard plate reading, replicate wells [3, 28]: 0.9376 and 0.8747 and 0.8715
- checkerboard plate reading, Average values [3, 29]: 0.7443
- checkerboard plate reading, replicate wells [3, 29]: 0.7759 and 0.7241 and 0.7328
- checkerboard plate reading, Average values [3, 30]: 0.6725
- checkerboard plate reading, replicate wells [3, 30]: 0.6624 and 0.6684 and 0.6868
- checkerboard plate reading, Average values [3, 31]: 0.6531
- checkerboard plate reading, replicate wells [3, 31]: 0.6441 and 0.64 and 0.6751
- checkerboard plate reading, Average values [3, 32]: 0.7311
- checkerboard plate reading, replicate wells [3, 32]: 0.701 and 0.7232 and 0.7691
- checkerboard plate reading, Average values [3, 33]: 0.2841
- checkerboard plate reading, replicate wells [3, 33]: 0.2522 and 0.2675 and 0.3325
- checkerboard plate reading, Average values [3, 34]: 0.151
- checkerboard plate reading, replicate wells [3, 34]: 0.1483 and 0.1495 and 0.1553
- checkerboard plate reading, Average values ([3]; Ciprofloxacin 50 nM + LEI-800 […]): 0.6545

Compound: O=S(=O)(NCCNCc1ccc(-c2ccc(F)nc2)cc1)c1cccc2cnccc12 [Compound 60]
- MIC [1, 35]: > 50 µM
- MIC [1, 36]: > 50 µM
- MIC [2, 37]: > 50 µM

Compound: O=S(=O)(NC[C@@H]1CC[C@H](c2ccc(-c3ccc(F)cc3)cc2)N1)c1cccc2cnccc12 [Compound 101]
- MIC [1, 35]: > 50 µM
- MIC [1, 36]: > 50 µM
- MIC [2, 37]: > 50 µM

Compound: O=S(=O)(NC[C@H]1CC[C@@H](c2ccc(-c3ccc(F)nc3)cc2)N1)c1cccc2cnccc12 [LEI-801]
- IC50 [4]: 440 nM
- fold less potent than LEI-800 ([4]; supercoiling IC50 ratio): 13 fold
